Experimental data taken from patent publication US20250346571A1, “BICYCLIC DERIVATIVE PARP INHIBITOR AND USE THEREOF” (XIZANG HAISCO PHARMACEUTICAL CO., LTD., priority 2022, published 2025).

Experiments:
[1] = molecular target: PARP-1 enzyme (Homo sapiens (Human), UniProt P09874); test: PARP-1 enzyme activity test (chemical fluorescence detection kit, BPS Bioscience); type: biochemical; settings: grades; read-out: PARP-1 enzyme activity IC50
Experimental: PARP-1 chemical fluorescence detection kit was purchased from BPS Bioscience. The histone solution in the kit was diluted 5× with 1×PBS, and 25 μL of the diluted histone solution was added to a microwell plate and incubated overnight at 4° C. After the incubation, the plate was washed three times with PBST (0.05% Tween-20). 100 μL of the blocking solution was added to the microwell plate and incubated at 25° C. for 90 minutes. After the incubation was completed, the plate was washed three times with PBST. 2.5 μL of compounds at different concentrations diluted in test buffer and 12.5 μL of substrate mixed solution (1.25 μL 10×PARP test buffer; 1.25 μL 10×PARP test mixed solution; 2.5 μL Activated DNA, 7.5 μL double-distilled water) were added to the microwell plate. The PARP-1 enzyme was diluted to 2 ng/μL, […] was added to the microwell plate, and the reaction system was incubated at 25° C. for 60 minutes.
After the incubation was completed, the plate was washed three times with PBST. Streptavidin-HRP was diluted 50× with a blocking solution, and 25 μL of the diluent was added to the microwell plate and incubated at 25° C. for 30 minutes. After the incubation, the plate was washed three times with PBST. ELISA ECL substrate A and substrate B were uniformly mixed at a ratio of 1:1 (v/v), 50 μL of the mixture was added to the microwell plate, and the chemiluminescence value was read.
The inhibition rate was calculated according to formula 1, where RLUsample was the readout of the compound well, RLUmax was the readout of the solvent control well, and RLUmin was the readout of the control well without the PARP-1 enzyme. Curve fitting was performed by four parameters (log(inhibitor) vs. response—Variable slope) using GraphPad Prism software, and the ICso value was calculated.
Inhibition %=(1−(RLUsample−RLUmin)/(RLUmax−RLUmin))×100% (formula 1)

[2] = Pharmacokinetic test in monkeys; type: in vivo, cynomolgus monkeys
Experimental: 6.1 Experimental animal: male cynomolgus monkeys, 3-5 kg, 3-6 years old, 4 monkeys/compound, purchased from Suzhou Xishan Biotechnology Inc.
6.2 Test method: On the day of the experiment, 8 monkeys were randomly grouped according to their body weights. The animals were fasted with water available for 14 to 18 h one day before the administration, and were fed 4 h after the administration.
Before and after the administration, 1.0 mL of blood was taken from the limb veins and placed in an EDTAK2 centrifuge tube. The blood was centrifuged at 5000 rpm and 4° C. for 10 min to collect plasma. The blood collection time points for the intravenous administration group were 0, 5 min, 15 min, 30 min, 1 h, 2 h, 4 h, 6 h, 8 h, 10 h, 12 h, 24 h and 48 h. Before analysis and detection, all samples were stored at −80° C. The samples were analyzed quantitatively by LC-MS/MS.

[3] = male, cynomolgus monkey, iv, monkeys, i.v. (0.5 mg/kg), plasma

Sequence of PARP-1 enzyme (P09874 whole entry): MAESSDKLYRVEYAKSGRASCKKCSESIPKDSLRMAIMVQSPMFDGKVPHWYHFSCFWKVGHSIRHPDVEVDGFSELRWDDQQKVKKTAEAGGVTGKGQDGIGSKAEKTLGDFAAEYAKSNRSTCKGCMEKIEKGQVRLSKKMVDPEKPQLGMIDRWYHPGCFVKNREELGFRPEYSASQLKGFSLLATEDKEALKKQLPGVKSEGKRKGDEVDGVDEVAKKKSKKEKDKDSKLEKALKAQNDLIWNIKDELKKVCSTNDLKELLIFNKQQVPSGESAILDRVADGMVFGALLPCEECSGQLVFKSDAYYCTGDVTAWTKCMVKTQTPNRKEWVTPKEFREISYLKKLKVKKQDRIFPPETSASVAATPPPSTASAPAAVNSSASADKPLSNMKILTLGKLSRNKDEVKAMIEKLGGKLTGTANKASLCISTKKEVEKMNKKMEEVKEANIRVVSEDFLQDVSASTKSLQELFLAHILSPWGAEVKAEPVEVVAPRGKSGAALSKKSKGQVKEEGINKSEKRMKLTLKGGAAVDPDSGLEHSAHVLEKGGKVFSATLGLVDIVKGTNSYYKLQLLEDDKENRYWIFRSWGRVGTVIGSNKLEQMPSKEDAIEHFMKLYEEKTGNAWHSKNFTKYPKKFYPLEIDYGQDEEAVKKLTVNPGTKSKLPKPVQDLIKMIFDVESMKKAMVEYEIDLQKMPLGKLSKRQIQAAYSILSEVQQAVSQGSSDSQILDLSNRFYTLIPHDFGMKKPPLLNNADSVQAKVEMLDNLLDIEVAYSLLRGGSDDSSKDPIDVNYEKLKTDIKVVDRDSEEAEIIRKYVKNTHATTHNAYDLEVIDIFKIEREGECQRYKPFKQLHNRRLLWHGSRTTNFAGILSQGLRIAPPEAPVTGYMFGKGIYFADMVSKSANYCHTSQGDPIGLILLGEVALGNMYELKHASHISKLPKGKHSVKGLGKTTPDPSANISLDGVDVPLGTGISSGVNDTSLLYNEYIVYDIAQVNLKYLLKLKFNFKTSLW

O=C(NC1CC1)c1ccc(N2CCN(Cc3ccc4nc(C(F)F)c(=O)[nH]c4c3F)CC2)c(F)n1 [Compound 12, N-cyclopropyl-5-(4-((2-(difluoromethyl)-5-fluoro-3-oxo-3,4-dihydroquinoxalin-6-yl)methyl)piperazin-1-yl)-6-fluoropicolinamide]
IC50 [1]: < 5 nM | pharmacokinetic characteristics in monkeys ([2]; conclusion in words): good pharmacokinetic characteristics | AUC(0-t) [2, 3]: 5470 ± 422 ng·h/mL | clearance [2, 3]: 1.5 ± 0.13 mL/min/kg | Vd ([2]; male, cynomolgus monkey, iv, monkeys, i.v. (0.5 mg/kg), plasma, read-out: Vdss): 0.419 ± 0.02 L/kg | bioavailability ([2]; male, cynomolgus monkey, plasma, po, monkeys, i.g. (3 mg/kg)): 63.2 ± 6.1% | AUC(0-t) ([2]; male, cynomolgus monkey, po, monkeys, i.g. (3 mg/kg), plasma): 20700 ± 1990 ng·h/mL
